Results taken from patent US8552135B2, “Substituted polyalkoxysiloxane compositions and methods of use” (One Unlimited, Inc., priority 2006, dated 2013).

Test system: Pseudomonas aeruginosa
Experiment: burn wound infection treated with Nu-3 applied with glycerol polysiloxanes
Type: in vivo
Details: burn wound infections
Excerpt: A particularly important medical treatment application is the healing effect of some of the hydrophilic substituted polydialkoxysiloxanes on radiation burn injuries. Skin irritation and burning is common in cases where patients undergo radiation treatment associated with certain cancers. Topical application of glycerol substituted polydialkoxysilane compositions relieves pain and accelerates healing compared to treatment with commonly used burn or cortisone ointments. […] Nubiotics are a new class of antibiotic agents with broad spectrum activity.

CCCCOP(=O)(O)OC[C@H]1O[C@@H](n2cc(C)c(=O)[nH]c2=O)C[C@@H]1OP(=O)(O)O [Nu-3, butyl-phosphate-5′-thymidine-3′-phosphate]
antibacterial effectiveness of Nu-3 when applied with glycerol polysiloxanes: only a slight decrease in antibacterial effectiveness
